Experimental data taken from patent US20250346606A1, “CAMPTOTHECIN COMPOUND, PREPARATION METHOD THEREFOR, AND APPLICATION THEREOF” (SICHUAN KELUN-BIOTECH BIOPHARMACEUTICAL CO., LTD., priority 2021, published 2025).
Like-named read-outs stand apart in the source and are kept apart here.

Columns and labels:
Type in all cases: cell-based, Human
HCC1806 cells = experiment: Inhibitory effect of compounds on HCC1806 cell proliferation
Procedure, shortened: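 HCC1806 cells, once adhered, were exposed to diluted compound for 72 h. Viability was read by Cell Counting-Lite 2.0 luminescence, inhibition calculated against vehicle and cell-free background RLU, and IC50 fitted with a four-parameter model.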

HCC70 cells = experiment: Inhibitory effect of compounds on HCC70 cell proliferation; conditions: read-out: IC50, inhibitory activity on HCC70 cell proliferation
Protocol: (1) Cell plating: First, tumor cells HCC70 were cultured in corresponding medium, then digested with trypsin, centrifuged, resuspended, and counted, and the cells were adjusted to an appropriate concentration for plating.
(§1) Co-incubation of the compound of the present disclosure and tumor cells: after the cells adhered to the wall, the medium was removed, and the diluted bioactive molecule (the compound of the present disclosure) was added to the wells of the above plate, and incubated for 72 h.
(§2) In vitro cell viability detection: After the incubation, 50 μL of Cell Counting-Lite™ 2.0 reagent (Vazyme/Novazyme) was added to each well, shaken and mixed well in the dark, reacted for 10 minutes, and then the detection was carried out with a microplate reader (manufacturer: BMG, Model: PHERAStar-FS) for reading. The background RLU was obtained by using cell-free medium (with Cell Counting-Lite™), and the vehicle RLU was obtained by using cell-containing medium (with Cell Counting-Lite™). Cell inhibition rate=1−(sample RLU−background RLU)/(solvent RLU−background RLU)×100%. According to the four-parameter model fitting curve, the half maximal inhibitory concentration (IC50) of the compound was calculated, and the detection results were shown in Table 16.

SKOV-3 cells = experiment: Inhibitory effect of compounds on SKOV-3 cell proliferation; conditions: read-out: IC50, inhibitory activity on SKOV-3 cell proliferation
MDA-MB-231 cells = experiment: Inhibitory effect of compounds on MDA-MB-231 cell proliferation; conditions: read-out: IC50, inhibitory activity on MDA-MB-231 cell proliferation
Protocol: (1) Cell plating: First, tumor cells MDA-MB-231 were cultured in corresponding medium, then digested with trypsin, centrifuged, resuspended, and counted, and the cells were adjusted to an appropriate concentration for plating.
as §1
as §2, with “18.” for “16.”

NCI-N87 cells = experiment: Inhibitory effect of compounds on NCI-N87 cell proliferation
Procedure, shortened: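 Adherent NCI-N87 cells were exposed to compound dilutions for 72 h. Viability measured by Cell Counting-Lite 2.0 luminescence, with inhibition calculated against vehicle and cell-free background RLU. IC50 from four-parameter fit.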

HT29 cells = experiment: Inhibitory effect of compounds on HT29 cell proliferation; conditions: read-out: IC50, inhibitory activity on HT29 cell proliferation
Procedure, shortened: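 Adherent HT29 cells incubated with diluted compounds for 72 h; viability read by luminescence (Cell Counting-Lite 2.0, 10 min). Inhibition calculated against cell-free background and vehicle-treated cells; IC50 from four-parameter curve fit.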

[1] = Homo sapiens, HCC1806, 72 h, read-out: IC50, inhibitory activity on HCC1806 cell proliferation, HCC1806 human breast squamous carcinoma cells, 72 h incubation, Cell Counting-Lite 2.0
[2] = Homo sapiens, NCI-N87, 72 h, read-out: IC50, inhibitory activity on NCI-N87 cell proliferation, NCI-N87 human gastric cancer cells, 72 h incubation, Cell Counting-Lite 2.0

| Molecule | IC50 (HCC1806 cells; [1]) [nM] | IC50 (HCC70 cells; Homo sapiens, HCC70, 72 h) [nM] | IC50 (SKOV-3 cells; Homo sapiens, SK-OV-3, 72 h) [nM] | IC50 (MDA-MB-231 cells; Homo sapiens, MDA-MB-231, 72 h) [nM] | IC50 (NCI-N87 cells; [2]) [nM] | IC50 (HT29 cells; Homo sapiens, HT-29, 72 h) [nM] | IC50 (HCC1806 cells; HCC1806 human breast squamous carcinoma cells, 72 h incubation, Cell Counting-Lite 2.0, read-out: IC50, inhibitory activity on HCC1806 cell proliferation) [nM] | IC50 (HCC70 cells; HCC70 human breast cancer cells, 72 h incubation, Cell Counting-Lite 2.0) [nM] | IC50 (SKOV-3 cells; SKOV-3 human ovarian cancer cells, 72 h incubation, Cell Counting-Lite 2.0) [nM] | IC50 (MDA-MB-231 cells; MDA-MB-231 human breast cancer cells, 72 h incubation, Cell Counting-Lite 2.0) [nM] | IC50 (NCI-N87 cells; NCI-N87 human gastric cancer cells, 72 h incubation, Cell Counting-Lite 2.0, read-out: IC50, inhibitory activity on NCI-N87 cell proliferation) [nM] | IC50 (HT29 cells; HT29 human colon cancer cells, 72 h incubation, Cell Counting-Lite 2.0) [nM] |
| --- | --- | --- | --- | --- | --- | --- | --- | --- | --- | --- | --- | --- |
| CC[C@@]1(O)C(=O)OCc2c1cc1n(c2=O)Cc2c-1nc1cc(Cl)c(C)c3c1c2[C@@H](NC(=O)[C@@H](O)C1CC1)CC3 [Example 5 (2-12-A), (2S)—N-((1S,9S)-5-chloro-9-ethyl-9-hydroxy-4-methyl-10,13-dioxo-2,3,9,10,13,15-hexahydro-1H,12H-benzo[de]pyrano[3′,4′:6,7]indolizino[1,2-b]quinolin-1-yl)-2-cyclopropyl-2-hydroxyacetamide] | 1.4 | 171 | 6.85 | 124 | 4.91 | 3.01 |  |  |  |  |  |  |
| CC[C@@]1(O)C(=O)OCc2c1cc1n(c2=O)Cc2c-1nc1cc(Cl)c(C)c3c1c2[C@H](NC(=O)[C@@H](O)C1CC1)CC3 [Example 5 (2-12-B), (2S)—N-((1R,9S)-5-chloro-9-ethyl-9-hydroxy-4-methyl-10,13-dioxo-2,3,9,10,13,15-hexahydro-1H,12H-benzo[de]pyrano[3′,4′:6,7]indolizino[1,2-b]quinolin-1-yl)-2-cyclopropyl-2-hydroxyacetamide] | 1.07 | 176 | 4.99 |  | 4.97 | 2.34 |  |  |  |  |  |  |
| (2S)—N-((1S,9S)-5-chloro-9-ethyl-9-hydroxy-4-methyl-10,13-dioxo-2,3,9,10,13,15-hexahydro-1H,12H-benzo[de]pyrano[3′,4′:6,7]indolizino[1,2-b]quinolin-1-yl)-2-hydroxypropylamine [Example 4 (2-7-A)] |  |  |  |  |  |  | 1.25 | 151 | 8.64 | 124 | 3.76 | 1.56 |
| CC#C[C@@H](O)C(=O)N[C@H]1CCc2c(C)c(F)cc3nc4c(c1c23)Cn1c-4cc2c(c1=O)COC(=O)[C@]2(O)CC [Example 1 (1-1-A), (R)—N-((1S,9S)-9-ethyl-5-fluoro-9-hydroxy-4-methyl-10,13-dioxo-2,3,9,10,13,15-hexahydro-1H,12H-benzo[de]pyrano[3′,4′:6,7]indolizino[1,2-b]quinolin-1-yl)-2-hydroxypent-3-yneamide] |  | 225 | 7.81 | 364 | 4.58 | 1.28 |  |  |  |  |  |  |
